The values that follow come from patent publication US12351581B2, “Compounds for FGFR inhibition” (Cogent Biosciences, Inc., priority 2023, dated 2025).

Where two headings read alike, the source gives them in different places.

One test concerns the target T1, FGFR2 (Homo sapiens, UniProt P21802).
T1 construct: biochemical assays using purified intracellular domains of the respective isoforms; purchased Carna Bioscience 08-134
Kind of test: FGFR wild type enzyme assay (HTRF KinEASE-TK). The test is classed as biochemical. The note with it: ATP 2 uM. The method, then: (§1) Activity against FGFR wild type and mutant enzymes were determined in biochemical assays using purified intracellular domains of the respective isoforms using HTRF KinEASE-TK assay technology from CisBio, now PerkinElmer. (Catalogue number 62TK0PEC). Briefly test compounds were tested in 11 point 1:3 serial dilutions, typical final concentration range from 10,000 nM to 0.17 nM. Test compounds were dissolved in DMSO and added to assay plates using acoustic transfer. Enzyme was pre-incubated with test compound for 30 minutes and the assay was initiated by addition of ATP and TK-peptide substrate. After 60 minutes at room temperature the reaction was quenched with detection reagent and incubated for an additional 60 minutes at room temperature. The plates were read using a multimode reader and the emission ratio of 665 nm to 615 nm was determined. This ratio was converted to percent of control (POC). [1-(high control-sample signal)/(high control-low control)]*100. Wells without compound were used to determine high control values and wells without enzyme were used to determine low control values. The POC values were fit using a four-parameter logistic model and the value where the fit curve was equal to 50 POC was reported as the IC50 using the Signals Vitro Vivo software package (PerkinElmer). Final assay conditions were: 50 mM HEPES pH7.5, 10 mM MgCl2, 1 mM EDTA, 0.01% Brij-35, 2 mM MnCl2, 1 mM DTT, and 0.5 uM TK-peptide. The enzyme source, catalogue number, final enzyme concentration, and final ATP concentration can be found in the tables 1-2 below.

A further test deals with FGFR2-WT (Homo sapiens, UniProt P21802). Kind of test: Phosphorylated FGFR2-WT (pFGFR2-WT) cell assay, KATOIII cells. The test is classed as cell-based. The note with it: 1 hour incubation, phospho FGFR2 HTRF. As to the method:
KATOIII cells were grown in the appropriate growth medium, IMDM supplemented with 20% fetal bovine serum. Cells were seeded into a 384-well at 1×10^5 cells/25 μL/well. Cells were treated with compound using three-fold serial dilutions at final concentrations ranging from 10 μM to 0.5 nM. Compound was incubated on cells for 1 hour at 37° C., 5% CO2.
Following the 1-hour incubation with compounds, cell lysates were prepared and phospho FGFR2 was measured using the HTRF Phospho-FGFR2 (TYR653/654) Detection Kits (CisBio, cat #64FGFR2Y6PEG). 8 μL of cell lysis buffer (4×) supplied with 1× Phospho and Total protein blocking reagent (CisBio, cat #64FGFR2Y6PEG, CisBio, cat #64KB1AAC) was then added to the wells. Cells were incubated with lysis buffer for 40 minutes at 4° C. under shaking conditions. Plates were centrifuged at 1500 rpm for 3 min and then 16 μL of cell lysate was transferred from the cell-culture plate to a small volume detection plate with the added premixed antibody solutions (4 μL) (CisBio, cat #64FGFR2Y6PEG). Plates were centrifuged at 1000 rpm for 1 min then incubated at 25° C. for 120 min, then overnight at 4° C. Plates were read on the En Vision multimode plate reader via HTRF dual wavelength detection. One hundred percent of control (POC) was determined using DMSO treated samples, and 0 POC was determined using the top concentration of a control compound. A 4-parameter logistic curve was fit to the POC values as a function of compound concentration to determine the IC50 value.

For another test, the target named is T2, FGFR2 N549H (Homo sapiens, UniProt P21802, N549H).
T2 construct: biochemical assays using purified intracellular domains of the respective isoforms; purchased Carna Bioscience 08-532
T2 sequence (P21802 399-821 N549H limits assumed): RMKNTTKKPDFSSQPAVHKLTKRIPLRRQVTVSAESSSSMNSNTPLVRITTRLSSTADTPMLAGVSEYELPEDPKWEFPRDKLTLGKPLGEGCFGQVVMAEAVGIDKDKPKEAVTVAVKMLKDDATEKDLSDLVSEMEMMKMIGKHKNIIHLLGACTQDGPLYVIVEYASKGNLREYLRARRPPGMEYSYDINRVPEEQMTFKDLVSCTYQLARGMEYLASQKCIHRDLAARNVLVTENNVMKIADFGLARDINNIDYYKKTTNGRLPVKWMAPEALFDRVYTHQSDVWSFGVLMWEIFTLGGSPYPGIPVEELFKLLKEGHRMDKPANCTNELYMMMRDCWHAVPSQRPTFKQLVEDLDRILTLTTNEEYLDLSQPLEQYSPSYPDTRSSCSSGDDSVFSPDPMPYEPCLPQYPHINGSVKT
Kind of test: FGFR mutant enzyme assay (HTRF KinEASE-TK). In kind it is biochemical. The note with it: ATP 0.9 uM. The method, then:
as §1

A further test addresses T3, FGFR2 V564F (Homo sapiens, UniProt P21802, V564F).
T3 construct: biochemical assays using purified intracellular domains of the respective isoforms; purchased SignalChem Biotech F05-12FG
Kind of test: FGFR mutant enzyme assay (HTRF KinEASE-TK). The following applies: ATP 1.5 uM. The test is classed as biochemical. The method, then:
as §1

The target of another test is T4, FGFR2 V564I (Homo sapiens, UniProt P21802, V564I).
T4 construct: biochemical assays using purified intracellular domains of the respective isoforms; purchased Carna Bioscience 08-546
T4 sequence (P21802 399-821 V564I limits assumed): as the sequence (P21802 399-821 N549H limits assumed) above, with H151N, V166I counted along it
Kind of test: FGFR mutant enzyme assay (HTRF KinEASE-TK). The following applies: ATP 0.4 uM. The test is classed as biochemical. As to the method:
as §1

[1] abbreviates: compound table after the examples, read-out: Enz FGFR2.

T3 sequence (P21802 399-821 V564F limits assumed): as the sequence (P21802 399-821 N549H limits assumed) above, with H151N, V166F counted along it
T1 sequence (P21802 399-821 limits assumed): as the sequence (P21802 399-821 N549H limits assumed) above, with H151N counted along it
Sequence of FGFR2-WT (P21802 430-767 limits assumed): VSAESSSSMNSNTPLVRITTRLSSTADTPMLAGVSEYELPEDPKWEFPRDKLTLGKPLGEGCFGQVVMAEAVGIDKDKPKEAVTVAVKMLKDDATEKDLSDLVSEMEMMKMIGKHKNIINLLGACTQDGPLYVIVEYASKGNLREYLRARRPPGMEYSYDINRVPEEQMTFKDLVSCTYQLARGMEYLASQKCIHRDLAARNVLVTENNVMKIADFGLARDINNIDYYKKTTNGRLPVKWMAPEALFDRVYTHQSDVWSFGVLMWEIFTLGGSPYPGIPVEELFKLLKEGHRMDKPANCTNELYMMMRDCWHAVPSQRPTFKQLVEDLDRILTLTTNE

On to `Cc1c(-c2cc(O[C@H](C)c3ccc(F)cn3)c3c(C#N)cnn3c2)cnn1[C@H]1CC[C@H](O)CC1` [Compound 1, 4-[(1R)-1-(5-fluoro-2-pyridyl)ethoxy]-6-[1-(4-hydroxycyclohexyl)-5-methyl-pyrazol-4-yl]pyrazolo[1,5-a]pyridine-3-carbonitrile], for which the IC50 on FGFR2 (Table 3, read-out: FGFR2 Enz) was 0.3 nM; at FGFR2 (setting [1]), 0.3 nM; at FGFR2-WT, 3.4 nM; against FGFR2 N549H it was 0.4 nM; on FGFR2 V564F, 1 nM; against FGFR2 V564I, 1.4 nM.
For the molecule `C[C@@H](Oc1cc(-c2cnn(C3CCNCC3)c2)cn2ncc(C#N)c12)c1ccccn1` [Compound 2, (R)-6-(1-(piperidin-4-yl)-1H-pyrazol-4-yl)-4-(1-(pyridin-2-yl)ethoxy)pyrazolo[1,5-a]pyridine-3-carbonitrile], the IC50 amounted to 0.16 nM on FGFR2 (Table 3, read-out: FGFR2 Enz); 0.16 nM at FGFR2 (setting [1]); 2.5 nM at FGFR2-WT; 0.05 nM at FGFR2 N549H; 0.14 nM on FGFR2 V564F; 0.24 nM against FGFR2 V564I.
As for `C[C@H](Oc1cc(-c2cnn(C3CCNCC3)c2)cn2ncc(C#N)c12)c1ccccn1` [Compound 3, (S)-6-(1-(piperidin-4-yl)-1H-pyrazol-4-yl)-4-(1-(pyridin-2-yl)ethoxy)pyrazolo[1,5-a]pyridine-3-carbonitrile], the IC50 at FGFR2 (Table 3, read-out: FGFR2 Enz) was found to be 21 nM; at FGFR2 (setting [1]), 21 nM; against FGFR2-WT, 128 nM.
With `Cc1nn(C2CCNCC2)c(C)c1-c1cc(O[C@H](C)c2ccccn2)c2c(C#N)cnn2c1` [Compound 4, (R)-6-(3,5-dimethyl-1-(piperidin-4-yl)-1H-pyrazol-4-yl)-4-(1-(pyridin-2-yl)ethoxy)pyrazolo[1,5-a]pyridine-3-carbonitrile], the IC50 turned out to be 1 nM on FGFR2 (Table 3, read-out: FGFR2 Enz); 1 nM on FGFR2 (setting [1]); 26 nM at FGFR2-WT; 2 nM on FGFR2 N549H; 3 nM on FGFR2 V564F; 4 nM against FGFR2 V564I.
As to `Cc1c(-c2cc(O[C@H](C)c3ccccn3)c3c(C#N)cnn3c2)cnn1C1CCNCC1` [Compound 5, (R)-6-(5-methyl-1-(piperidin-4-yl)-1H-pyrazol-4-yl)-4-(1-(pyridin-2-yl)ethoxy)pyrazolo[1,5-a]pyridine-3-carbonitrile], the IC50 at FGFR2 (Table 3, read-out: FGFR2 Enz) turned out to be 0.25 nM; on FGFR2 (setting [1]), 0.25 nM; on FGFR2-WT, 5 nM; against FGFR2 N549H, 0.7 nM; at FGFR2 V564F it was 1 nM; against FGFR2 V564I, 1.4 nM.
In the case of `Cc1nn(C2CCN(C)CC2)c(C)c1-c1cc(O[C@H](C)c2ccccn2)c2c(C#N)cnn2c1` [Compound 6, (R)-6-(3,5-dimethyl-1-(1-methylpiperidin-4-yl)-1H-pyrazol-4-yl)-4-(1-(pyridin-2-yl)ethoxy)pyrazolo[1,5-a]pyridine-3-carbonitrile], the IC50 at FGFR2 (Table 3, read-out: FGFR2 Enz) came to 1 nM; on FGFR2 (setting [1]), 1 nM; at FGFR2-WT, 15 nM; against FGFR2 N549H, 2.4 nM; on FGFR2 V564F, 4 nM; against FGFR2 V564I, 4.3 nM.
Turning to `Cc1c(-c2cc(O[C@H](C)c3ccccn3)c3c(C#N)cnn3c2)cnn1C1CCN(C)CC1` [Compound 7, (R)-6-(5-methyl-1-(1-methylpiperidin-4-yl)-1H-pyrazol-4-yl)-4-(1-(pyridin-2-yl)ethoxy)pyrazolo[1,5-a]pyridine-3-carbonitrile], the IC50 at FGFR2 (Table 3, read-out: FGFR2 Enz) was 0.3 nM; on FGFR2 (setting [1]), 0.3 nM; against FGFR2-WT it was 6 nM; on FGFR2 N549H, 0.5 nM; at FGFR2 V564F, 1 nM; on FGFR2 V564I, 1 nM.
`C[C@@H](Oc1cc(-c2cnn(C3CCNCC3)c2)cn2ncc(C#N)c12)c1ncccc1F` [Compound 8, (R)-4-(1-(3-fluoropyridin-2-yl)ethoxy)-6-(1-(piperidin-4-yl)-1H-pyrazol-4-yl)pyrazolo[1,5-a]pyridine-3-carbonitrile]: the IC50 on FGFR2 (Table 3, read-out: FGFR2 Enz) is 0.2 nM; at FGFR2 (setting [1]), 0.2 nM; against FGFR2-WT, 2 nM; at FGFR2 N549H, 0.05 nM; on FGFR2 V564F, 0.08 nM; against FGFR2 V564I, 0.1 nM.
For `Cc1c(-c2cc(O[C@H](C)c3ncccc3F)c3c(C#N)cnn3c2)cnn1C1CCNCC1` [Compound 9, (R)-4-(1-(3-fluoropyridin-2-yl)ethoxy)-6-(5-methyl-1-(piperidin-4-yl)-1H-pyrazol-4-yl)pyrazolo[1,5-a]pyridine-3-carbonitrile], the IC50 is 0.3 nM on FGFR2 (Table 3, read-out: FGFR2 Enz); 0.3 nM at FGFR2 (setting [1]); 7 nM at FGFR2-WT; 0.5 nM against FGFR2 N549H; 1 nM against FGFR2 V564F; 1 nM on FGFR2 V564I.
Turning to `Cc1c(-c2cc(O[C@H](C)c3ncccc3F)c3c(C#N)cnn3c2)cnn1[C@H]1CCCNC1` [Compound 10, 4-((R)-1-(3-fluoropyridin-2-yl)ethoxy)-6-(5-methyl-1-((S)-piperidin-3-yl)-1H-pyrazol-4-yl)pyrazolo[1,5-a]pyridine-3-carbonitrile], the IC50 on FGFR2 (Table 3, read-out: FGFR2 Enz) was 0.3 nM; at FGFR2 (setting [1]), 0.3 nM; on FGFR2-WT, 5 nM; on FGFR2 N549H, 0.55 nM; against FGFR2 V564F, 0.8 nM; against FGFR2 V564I it was 1 nM.
Take `Cc1nn([C@H]2CCCNC2)c(C)c1-c1cc(O[C@H](C)c2ncccc2F)c2c(C#N)cnn2c1` [Compound 11, 6-(3,5-dimethyl-1-((S)-piperidin-3-yl)-1H-pyrazol-4-yl)-4-((R)-1-(3-fluoropyridin-2-yl)ethoxy)pyrazolo[1,5-a]pyridine-3-carbonitrile]: the IC50 on FGFR2 (Table 3, read-out: FGFR2 Enz) worked out at 1.4 nM; on FGFR2 (setting [1]), 0.5 nM; against FGFR2-WT, 23 nM; against FGFR2 N549H it was 4.6 nM; on FGFR2 V564F it was 4.4 nM; against FGFR2 V564I, 5.8 nM.
In the case of `Cc1c(-c2cc(O[C@H](C)c3ccc(F)cn3)c3c(C#N)cnn3c2)cnn1[C@H]1CCCNC1` [Compound 12, 4-((R)-1-(5-fluoropyridin-2-yl)ethoxy)-6-(5-methyl-1-((S)-piperidin-3-yl)-1H-pyrazol-4-yl)pyrazolo[1,5-a]pyridine-3-carbonitrile], the IC50 at FGFR2 (Table 3, read-out: FGFR2 Enz) was 0.45 nM; on FGFR2 (setting [1]) it was 0.5 nM; at FGFR2-WT it was 4.7 nM; against FGFR2 N549H, 0.7 nM; against FGFR2 V564F, 1.3 nM; on FGFR2 V564I it was 1.8 nM.
In the case of `CC(=O)N1CCC[C@H](n2ncc(-c3cc(O[C@H](C)c4ccc(F)cn4)c4c(C#N)cnn4c3)c2C)C1` [Compound 13, 6-(1-((S)-1-acetylpiperidin-3-yl)-5-methyl-1H-pyrazol-4-yl)-4-((R)-1-(5-fluoropyridin-2-yl)ethoxy)pyrazolo[1,5-a]pyridine-3-carbonitrile], the IC50 on FGFR2 (Table 3, read-out: FGFR2 Enz) amounted to 0.5 nM; on FGFR2 (setting [1]), 0.6 nM; at FGFR2-WT it was 3.8 nM; on FGFR2 N549H, 0.6 nM; against FGFR2 V564F it was 1.6 nM; against FGFR2 V564I, 2 nM.
Take `Cc1c(-c2cc(O[C@H](C)c3ccc(Cl)cn3)c3c(C#N)cnn3c2)cnn1[C@H]1CCCNC1` [Compound 14, 4-((R)-1-(5-chloropyridin-2-yl)ethoxy)-6-(5-methyl-1-((S)-piperidin-3-yl)-1H-pyrazol-4-yl)pyrazolo[1,5-a]pyridine-3-carbonitrile]: the IC50 at FGFR2 (Table 3, read-out: FGFR2 Enz) is 12.5 nM; on FGFR2 (setting [1]) it was 12.5 nM; against FGFR2-WT, 267 nM; against FGFR2 N549H, 14 nM; on FGFR2 V564F, 15 nM; against FGFR2 V564I, 38 nM.
